Drawing on patent US20240228488A1 (TAKEDA PHARMACEUTICAL COMPANY LIMITED, priority 2021, published 2024), this text covers EC50 for 20 compounds.

Molecules are shown by their SMILES. Bounds are passed on as bounds.

This test deals with human activated kallikrein enzyme (Homo sapiens, UniProt P03952). The test can be described thus: Plasma kallikrein inhibition, fluorogenic PFR-AMC substrate, 500 pM activated kallikrein format. Format: biochemical. The conditions noted are these: 500 pM activated kallikrein, 300 uM PFR-AMC, 30 min preincubation, 10 min reaction; read-out: Primary Dose Response Assay: Average EC50. Summed up: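 Fluorescence (ex 380/em 460 nm) is read after 10 min of 300 uM PFR-AMC turnover by 500 pM enzyme at RT. Compounds sit with enzyme for 30 min beforehand. Buffer is Tris (pH 7.5) with EDTA, NaCl, PEG-400 and Triton X-100; EC50 values are banded.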
human activated kallikrein enzyme, sequence (P03952 391-638 limits assumed): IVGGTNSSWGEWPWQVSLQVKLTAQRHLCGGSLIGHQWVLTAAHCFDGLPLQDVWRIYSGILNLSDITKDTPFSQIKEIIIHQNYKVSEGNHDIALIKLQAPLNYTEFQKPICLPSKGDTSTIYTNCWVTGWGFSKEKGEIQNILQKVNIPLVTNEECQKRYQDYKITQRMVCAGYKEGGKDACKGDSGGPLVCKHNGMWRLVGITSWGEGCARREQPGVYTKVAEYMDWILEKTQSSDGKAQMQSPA
human activated kallikrein enzyme, sequence (P03952 20-390 partner limits assumed): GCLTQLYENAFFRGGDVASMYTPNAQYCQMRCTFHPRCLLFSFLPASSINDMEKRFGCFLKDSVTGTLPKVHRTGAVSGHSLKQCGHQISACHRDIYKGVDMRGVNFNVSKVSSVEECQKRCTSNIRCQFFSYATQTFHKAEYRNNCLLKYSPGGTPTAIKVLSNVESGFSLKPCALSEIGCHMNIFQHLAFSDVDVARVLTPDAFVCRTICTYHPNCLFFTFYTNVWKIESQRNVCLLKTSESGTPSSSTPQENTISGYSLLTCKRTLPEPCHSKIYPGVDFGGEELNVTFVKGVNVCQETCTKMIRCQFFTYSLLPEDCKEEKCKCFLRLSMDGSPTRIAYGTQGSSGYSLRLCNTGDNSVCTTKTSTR
On to `CCc1cc(N2CC(=O)N(C)C2=O)c2nc([C@@H](C)Nc3cc(NC(=O)[C@H]4C[C@@H]4c4nccc(C)n4)ncn3)cn2c1` [Example 419, (1S,2S)-N-(6-(((R)-1-(6-ethyl-8-(3-methyl-2,4-dioxoimidazolidin-1-yl)imidazo[1,2-a]pyridin-2-yl)ethyl)amino)pyrimidin-4-yl)-2-(4-methylpyrimidin-2-yl)cyclopropane-1-carboxamide], for which the concentration for a half-maximal effect (EC50) is less than 1 nM. The result for `Cc1ccnc([C@H]2C[C@@H]2C(=O)Nc2cc(N[C@H](C)c3cn4cc(C5CC5)cc(N5C(=O)N(C)C(=O)C56COC6)c4n3)ncn2)n1` [Example 420, (1S,2S)-N-(6-(((R)-1-(6-cyclopropyl-8-(7-methyl-6,8-dioxo-2-oxa-5,7-diazaspiro[3.4]octan-5-yl)imidazo[1,2-a]pyridin-2-yl)ethyl)amino)pyrimidin-4-yl)-2-(4-methylpyrimidin-2-yl)cyclopropane-1-carboxamide] reads less than 1 nM. The value for `Cc1ccnc([C@H]2C[C@@H]2C(=O)Nc2cc(N[C@H](C)c3cn4cc(Cl)cc(N5CC(=O)N(C)C5=O)c4n3)ncn2)n1` [Example 421, (1S,2S)-N-(6-(((R)-1-(6-chloro-8-(3-methyl-2,4-dioxoimidazolidin-1-yl)imidazo[1,2-a]pyridin-2-yl)ethyl)amino)pyrimidin-4-yl)-2-(4-methylpyrimidin-2-yl)cyclopropane-1-carboxamide] was less than 1 nM; that for `Cc1ccnc([C@H]2C[C@@H]2C(=O)Nc2cc(N[C@H](C)c3cn4cc(C5CC5)cc(N=S(C)(C)=O)c4n3)ncn2)n1` [Example 422, (1S,2S)-N-(6-(((R)-1-(6-cyclopropyl-8-((dimethyl(oxo)-16-sulfaneylidene)amino)imidazo[1,2-a]pyridin-2-yl)ethyl)amino)pyrimidin-4-yl)-2-(4-methylpyrimidin-2-yl)cyclopropane-1-carboxamide] was less than 1 nM. The result for `CCC(=O)O[C@H]1C[C@H](c2cn3cc(C4CC4)cc(N4CC(=O)N(C)C4=O)c3n2)N(c2cc(NC(=O)[C@H]3C[C@@H]3c3nccc(C)n3)ncn2)C1` [Example 425, (3S,5R)-5-(6-cyclopropyl-8-(3-methyl-2,4-dioxoimidazolidin-1-yl)imidazo[1,2-a]pyridin-2-yl)-1-(6-((1S,2S)-2-(4-methylpyrimidin-2-yl)cyclopropane-1-carboxamido)pyrimidin-4-yl)pyrrolidin-3-yl propionate] reads 10 to 100 nM. With `Cc1ccnc([C@H]2C[C@@H]2C(=O)Nc2cc(N3CC(C)(O)C[C@@H]3c3cn4cc(C5CC5)ccc4n3)ncn2)n1` (stereo partly drawn) [Example 426, (1S,2S)-N-(6-((2R)-2-(6-cyclopropylimidazo[1,2-a]pyridin-2-yl)-4-hydroxy-4-methylpyrrolidin-1-yl)pyrimidin-4-yl)-2-(4-methylpyrimidin-2-yl)cyclopropane-1-carboxamide], the EC50 fell in the range of 10 to 100 nM.

For the compound `Cc1ccnc([C@H]2C[C@@H]2C(=O)Nc2cc(N[C@@H](C)c3cn4cc(C(F)F)cc(N5CC(=O)N(C)C5=O)c4n3)nc(C)n2)n1` [Example 427, (1S,2S)-N-(6-(((S)-1-(6-(difluoromethyl)-8-(3-methyl-2,4-dioxoimidazolidin-1-yl)imidazo[1,2-a]pyridin-2-yl)ethyl)amino)-2-methylpyrimidin-4-yl)-2-(4-methylpyrimidin-2-yl)cyclopropane-1-carboxamide], the EC50 was 10 to 100 nM.

For the compound `Cc1ccnc([C@H]2C[C@@H]2C(=O)Nc2cc(N[C@H](C)c3cn4cc(C(F)F)cc(N5CC(=O)N(C)C5=O)c4n3)nc(C)n2)n1` [Example 428, (1S,2S)-N-(6-(((R)-1-(6-(difluoromethyl)-8-(3-methyl-2,4-dioxoimidazolidin-1-yl)imidazo[1,2-a]pyridin-2-yl)ethyl)amino)-2-methylpyrimidin-4-yl)-2-(4-methylpyrimidin-2-yl)cyclopropane-1-carboxamide], the EC50 was less than 1 nM. On to `CCc1cc(N2CC(=O)N(C)C2=O)c2nc([C@@H](C)Nc3cc(NC(=O)[C@H]4C[C@@H]4c4nccc(C)n4)nc(C)n3)cn2c1` [Example 429, (1S,2S)-N-(6-(((R)-1-(6-ethyl-8-(3-methyl-2,4-dioxoimidazolidin-1-yl)imidazo[1,2-a]pyridin-2-yl)ethyl)amino)-2-methylpyrimidin-4-yl)-2-(4-methylpyrimidin-2-yl)cyclopropane-1-carboxamide], for which the EC50 is less than 1 nM. The value for `Cc1cc(N2CC3CC3C2=O)c2nc([C@@H](C)Nc3cc(NC(=O)[C@H]4C[C@@H]4c4nccc(C)n4)nc(C)n3)cn2c1` (stereo partly drawn) [Example 430, (1S,2S)-N-(2-methyl-6-(((1R)-1-(6-methyl-8-(2-oxo-3-azabicyclo[3.1.0]hexan-3-yl)imidazo[1,2-a]pyridin-2-yl)ethyl)amino)pyrimidin-4-yl)-2-(4-methylpyrimidin-2-yl)cyclopropane-1-carboxamide] was 1 to 10 nM; that for `Cc1ccnc([C@H]2C[C@@H]2C(=O)Nc2cc(N[C@H](C)c3cn4cc(C5CC5)cc(N=S(C)(C)=O)c4n3)nc(C)n2)n1` [Example 431, (1S,2S)-N-(6-(((R)-1-(6-cyclopropyl-8-((dimethyl(oxo)-16-sulfaneylidene)amino)imidazo[1,2-a]pyridin-2-yl)ethyl)amino)-2-methylpyrimidin-4-yl)-2-(4-methylpyrimidin-2-yl)cyclopropane-1-carboxamide] was less than 1 nM. `Cc1ccnc([C@H]2C[C@@H]2C(=O)Nc2cc(N[C@H](C)c3cn4cc(C5CC5)cc(N5C(=O)N(C)C(=O)C5(C)C)c4n3)nc(C)n2)n1` [Example 432, (1S,2S)-N-(6-(((R)-1-(6-cyclopropyl-8-(3,5,5-trimethyl-2,4-dioxoimidazolidin-1-yl)imidazo[1,2-a]pyridin-2-yl)ethyl)amino)-2-methylpyrimidin-4-yl)-2-(4-methylpyrimidin-2-yl)cyclopropane-1-carboxamide]: the EC50 is less than 1 nM. The result for `Cc1ccnc([C@H]2C[C@@H]2C(=O)Nc2cc(N[C@H](C)c3cn4cc(C5CC5)cc(N5CC6CC6C5=O)c4n3)nc(C)n2)n1` (stereo partly drawn) [Example 433, (1S,2S)-N-(6-(((1R)-1-(6-cyclopropyl-8-(2-oxo-3-azabicyclo[3.1.0]hexan-3-yl)imidazo[1,2-a]pyridin-2-yl)ethyl)amino)-2-methylpyrimidin-4-yl)-2-(4-methylpyrimidin-2-yl)cyclopropane-1-carboxamide] reads less than 1 nM; that for `Cc1ccnc([C@H]2C[C@@H]2C(=O)Nc2cc(N[C@H](C)c3cn4cc(C5CC5)cc(N5CC6(COC6)N(C)C5=O)c4n3)nc(C)n2)n1` [Example 435, (1S,2S)-N-(6-(((R)-1-(6-cyclopropyl-8-(5-methyl-6-oxo-2-oxa-5,7-diazaspiro[3.4]octan-7-yl)imidazo[1,2-a]pyridin-2-yl)ethyl)amino)-2-methylpyrimidin-4-yl)-2-(4-methylpyrimidin-2-yl)cyclopropane-1-carboxamide], less than 1 nM; that for `Cc1ccnc([C@H]2C[C@@H]2C(=O)Nc2cc(N[C@H](C)c3cn4cc(C5(F)CC5)cc(N5CC(=O)N(C)C5=O)c4n3)nc(C)n2)n1` [Example 436, (1S,2S)-N-(6-(((R)-1-(6-(1-fluorocyclopropyl)-8-(3-methyl-2,4-dioxoimidazolidin-1-yl)imidazo[1,2-a]pyridin-2-yl)ethyl)amino)-2-methylpyrimidin-4-yl)-2-(4-methylpyrimidin-2-yl)cyclopropane-1-carboxamide], less than 1 nM. The value for `COCc1nc(NC(=O)[C@H]2C[C@@H]2c2nccc(C)n2)cc(N[C@H](C)c2cn3cc(C)cc(N4CC(=O)N(C)C4=O)c3n2)n1` [Example 438, (1S,2S)-N-(2-(methoxymethyl)-6-(((R)-1-(6-methyl-8-(3-methyl-2,4-dioxoimidazolidin-1-yl)imidazo[1,2-a]pyridin-2-yl)ethyl)amino)pyrimidin-4-yl)-2-(4-methylpyrimidin-2-yl)cyclopropane-1-carboxamide] was less than 1 nM. The result for `COCc1nc(NC(=O)[C@H]2C[C@@H]2c2nccc(C)n2)cc(N[C@H](C)c2cn3cc(C4(F)CC4)cc(N4CC(=O)N(C)C4=O)c3n2)n1` [Example 439, (1S,2S)-N-(6-(((R)-1-(6-(1-fluorocyclopropyl)-8-(3-methyl-2,4-dioxoimidazolidin-1-yl)imidazo[1,2-a]pyridin-2-yl)ethyl)amino)-2-(methoxymethyl)pyrimidin-4-yl)-2-(4-methylpyrimidin-2-yl)cyclopropane-1-carboxamide] reads less than 1 nM; that for `Cc1cc(NC(=O)[C@H]2C[C@@H]2c2nccc(C)n2)nc(N[C@H](C)c2cn3cc(C4CC4)cc(N4CC(=O)N(C)C4=O)c3n2)n1` [Example 440, (1S,2S)-N-(2-(((R)-1-(6-cyclopropyl-8-(3-methyl-2,4-dioxoimidazolidin-1-yl)imidazo[1,2-a]pyridin-2-yl)ethyl)amino)-6-methylpyrimidin-4-yl)-2-(4-methylpyrimidin-2-yl)cyclopropane-1-carboxamide], less than 1 nM. Regarding `Cc1ccnc([C@H]2C[C@@H]2C(=O)Nc2cc(N[C@H](C)c3cn4cc(C5CC5)cc(N5CC(=O)N(C)C5=O)c4n3)nc(N(C)C)n2)n1` [Example 441, (1S,2S)-N-(6-(((R)-1-(6-cyclopropyl-8-(3-methyl-2,4-dioxoimidazolidin-1-yl)imidazo[1,2-a]pyridin-2-yl)ethyl)amino)-2-(dimethylamino)pyrimidin-4-yl)-2-(4-methylpyrimidin-2-yl)cyclopropane-1-carboxamide], the EC50 is less than 1 nM. Take `O=C(Nc1cc(N2C[C@@H](CO)C[C@@H]2c2cn3cc(C4CC4)ccc3n2)ncn1)[C@H]1C[C@@H]1c1cc(Cl)ccn1` [Example 442, (1S,2S)-2-(4-chloropyridin-2-yl)-N-(6-((2R,4S)-2-(6-cyclopropylimidazo[1,2-a]pyridin-2-yl)-4-(hydroxymethyl)pyrrolidin-1-yl)pyrimidin-4-yl)cyclopropane-1-carboxamide]: the EC50 was in the range of 1000 to 6000 nM.
